According to patent US12448491B2, “Nano-patterend conductive polymer substrate with improved cell alignment, maturity, adhesion, and connectivity and method for manufacturing same” (priority 2022, dated 2025):

Experiments:
cardiomyocytes = test: Drug screening on bare and embedded PDMS cantilevers (beat displacement); assay type: cell-based, rat; details: for displacement reduction: 10 nM drug; for contraction returned compared with before drug treatment: 24 h after media replacement
Description: To quantitatively analyze the correlation between cell maturation and drug toxicity, polymer cantilever arrays composed of the bare thin film and the embedded thin film were fabricated.

[1] = system: human-induced pluripotent stem cell-cardiomyocytes (hiPSC-CMs); test: Comparison of NRVM and hiPSC-CM in drug test (hiPSC-CM); assay type: cell-based
Description: (§1) There are several similarities and differences in the drug response between animal and human cardiomyocytes.

[2] = system: neonatal rat ventricular myocytes (NRVMs); test: Comparison of NRVM and hiPSC-CM in drug test (NRVM); assay type: cell-based; details: animal cells
Description: as §1

[3] = system: human-induced pluripotent stem cell-cardiomyocytes (hiPSC-CMs); test: Drug screening for hiPSC-CMs on bare and embedded PDMS; assay type: cell-based; details: after 48 h
Protocol: Since pre-clinical studies on rats could not completely predict effects on the human heart, human-induced pluripotent stem cell-cardiomyocytes (hiPSC-CMs) had significant advantages over the use of animal models. To further investigate the responses of different drugs on immature and mature cardiomyocytes in human cells, hiPSC-CMs were cultured.

SMILES	resistance of cardiomyocytes to the drug (cardiomyocytes; cultured on embedded PDMS, FIGS. 17B and 17C)	IC50 ([1]; (b) of FIG. 20A, NRVM vs hiPSC-CM comparison, cell type of the value not stated) [nM]	tendency of beat frequency and contraction with increasing drug ([1]; human cells)	displacement reduction (cardiomyocytes; bare PDMS cantilever)	displacement reduction (cardiomyocytes; embedded PDMS cantilever)	beating of cardiomyocytes (cardiomyocytes; 1 μM drug, cultured on bare PDMS)	beat rate level compared with the maximum displacement value (cardiomyocytes; 1 μM drug, cultured on embedded PDMS) [%]	contraction returned compared with before drug treatment (cardiomyocytes; bare PDMS cantilever) [%]	contraction returned compared with before drug treatment (cardiomyocytes; embedded PDMS cantilever) [%]	decreased contraction force returned after washing (cardiomyocytes; after washing for 48 h, AgNW-embedded PDMS substrate) [%]	beat behavior after washing (cardiomyocytes; after washing for 48 h, control bare PDMS)	IC50 (cardiomyocytes; cardiomyocytes cultured on bare PDMS thin film) [nM]	IC50 (cardiomyocytes; cardiomyocytes cultured on embedded PDMS thin film) [nM]	tendency of beat frequency and contraction with increasing drug [2]	contraction force returned after replacement of culture ([3]; hiPSC-CMs on bare PDMS)	contraction force returned after replacement of culture ([3]; hiPSC-CMs on embedded PDMS) [%]
Cc1cccc(CCN2CCC(C(=O)c3ccc(NS(C)(=O)=O)cc3)CC2)n1 [E-4031]	enhanced resistance	–	–	–	–	–	–	–	–	–	–	–	–	–	–	–
Cc1ccc2c(c1)C(=O)C1(O)CCN(c3ccccc3)C1=N2 (stereo not shown) [blebbistatin]	–	~1000	decrease only displacement	half displacement reduction	about 10%	no longer beat	20	10	≥ 75	75	not returned to the initial state	174	521	decrease both beat frequency and contraction force	did not return	≥ 70
